Measured values published in patent publication US20260287586A1, “METHODS OF TREATING TKI-RESISTANT AND SDH-DEFICIENT GIST” (priority 2023, published 2026).
Where “and” joins values, the source holds several entries; their conditions need not be identical. Equal values may be shown once. Entries after “also recorded” stand apart in the source; their conditions may differ.

Experiments:
[1] = Phase 1 trial HQP1351-SJ-0003 of olverembatinib: safety (adverse events, DLT, MTD/RP2D); type: in vivo, human; details: for Abdominal pain, treatment-emergent AE / Anemia, treatment-emergent AE / Constipation, treatment-emergent AE / Fatigue, treatment-emergent AE / Hyperuricemia, treatment-emergent AE / Increased alanine aminotransferase, treatment-emergent AE / Increased aspartate aminotransferase, treatment-emergent AE / Increased leukocyte count, treatment-emergent AE / Increased neutrophil count, treatment-emergent AE / Pyrexia, treatment-emergent AE: all patients N = 66
Description: The dose escalation aspect of the study enrolled patients with advanced and/or metastatic GIST or other solid tumors that were refractory or had relapsed after treatment with at least one TKI.
Eligible patients were adults (≥18 years) who had advanced and/or metastatic GISTs or other solid tumors confirmed by histology and/or cytology. The definition of SDH-deficient GIST was based on pathological phenotype with negative immunohistochemical staining for SDHB. Also required for study enrollment were Eastern Cooperative Oncology Group performance status (ECOG PS)≤2; and adequate renal, hepatic, cardiac, and bone marrow function. A full list of inclusion and exclusion criteria is in the protocol. Enrollment trends, ongoing review of study data, and evolving knowledge regarding the GIST treatment paradigm informed the study sponsor's medical director's and investigators' decision to analyze the SDH-deficient GIST patient subgroup separately.
Based on encouraging initial activity and favorable tolerability (Qiu, H., et al., J. Clin. Oncol. 40, 11513 (2022)), additional patients with SDH-deficient GIST were enrolled to further explore efficacy, and patients with TKI-naïve SDH-deficient GIST and adolescent patients (aged 12-18 years old) with SDH-deficient GIST were permitted. After data from the dose-escalation part of the study were reviewed during a meeting of the principal investigators and a postmarket dose was recommended to treat CML, all adult patients received 40 mg QOD (determined RP2D dose), and adolescent patients received 20 to 40 mg QOD based on body weight. If body weight was at least 40 kg, patients received 40 mg QOD; if within 30-40 kg, 30 mg QOD; and, if within 20-30 kg, 20 mg QOD. Patients with SDH-deficient malignant paraganglioma who had failed at least one treatment and were without appropriate treatment (as judged by investigators) were also enrolled. Treatment could continue until precluded by toxicity, noncompliance, withdrawal of consent, physician decision, progressive disease, death, or closure of the study. All protocol modifications, including those increasing the number of patients and cohorts in the dose-expansion aspect, are established in the trial protocol version dated May 27, 2022.
Physical examination and adverse events (AEs) were evaluated at each follow-up visit (day −28~day −1 after signed informed consent form); on days 1, 8, 15, and 22 during cycles 1 and 2; and on days 1 and 15 in cycle 3 and all subsequent cycles, up to 30 days after the final dose. All AEs were graded according to the US National Cancer Institute (NCI) Common Terminology Criteria for Adverse Events (CTCAE; version 4.03). Clinical laboratory investigations for routine blood examinations and serum chemistry parameters were performed during every cycle (on day 1); cycles 1 and 2 (on days 8, 15, and 22); and 30 days after the last dose of treatment. Urinalysis, coagulation, cardiac troponin I/T, lipase, amylase, and electrocardiograms were done at baseline; during cycles 1 and 2 (on days 1 and 15); cycle 3, 5, 7, and 9; every 3 cycles after cycle 9 (on day 1); and 14 days after the last dose of treatment. All patients underwent tumor imaging for response assessment via computed tomography or magnetic resonance imaging at screening and every two cycles (8 weeks) until progression or discontinuation. Target and nontarget lesions were assessed per Response Evaluation Criteria in Solid Tumors version 1.1 (RECIST v1.1).
The data cutoff for this analysis was Dec. 27, 2023. The safety population included all patients who received at least one dose of olverembatinib. The SDH-deficient GIST population (prespecified subgroup) included patients in the safety population. MTD was defined as the highest dose level with no more than one dose-limiting toxicity in six patients.

[2] = system: OS-RC-2 (SDHB-deficient) and 785-O (SDHB-competent) renal carcinoma cells; assay: Cell colony formation assay; type: cell-based; details: 7 days (SDHB-competent line), 10 days (OS-RC-2); FIG. 2B right
Description: Cells were extracted from SDH-deficient patient tumor tissues, seeded into 96-well plates, and incubated for 24 hours in GIST culture medium. […] Right panel, Colony formation assay in renal carcinoma cells 7860 (SDHB-wild-type) and OS-RC-2 (SDHB-deficient). Cells were seeded into 6-well plates and incubated overnight in complete culture medium.
For the colony formation assay, 1,000 cells were plated in 6-well plates per well, incubated for 7 to 14 days, then stained with 0.1% crystal violet and colony numbers counted.

[3] = reported in ≥2 patients, N = 66

Q: Which results are given for `Cc1ccc(C(=O)Nc2ccc(CN3CCN(C)CC3)c(C(F)(F)F)c2)cc1C#Cc1cnc2[nH]ncc2c1` [Olverembatinib, olverembatinib]?
A: dose-limiting toxicities ([1]; 20-50 mg QOD): No dose-limiting toxicities were reported; also recorded: No dose-limiting toxicity was observed; maximum tolerated dose (MTD) ([1]; 20-50 mg QOD): not reached; dose reductions due to TRAEs ([1]; N = 66): dose reductions in two patients; patients who experienced grade ≥3 TRAEs ([1]; N = 66): 13.6%; patients who experienced treatment-related adverse events (TRAEs) ([1]; N = 66): 93.9%; treatment-related serious adverse events ([1]; N = 66): 7.6%; Anemia, treatment-related serious AE ([1]; N = 66, value is N): 2 N (%); Coronary sclerosis, treatment-related serious AE ([1]; N = 66, value is N): 1 N (%); Intestinal obstruction, treatment-related serious AE ([1]; N = 66, value is N): 1 N (%); Leukemoid reaction, treatment-related serious AE ([1]; N = 66, value is N): 1 N (%); subjects who experienced treatment-emergent adverse events (TEAEs) ([1]; all 66 subjects, oral 20-50 mg QOD): 100.0%; Abdominal pain, treatment-related AE ([1]; any grade, N = 66, value is N): 3 N (%); Anemia, treatment-related AE ([1]; any grade, N = 66, value is N): 9 N (%); Constipation, treatment-related AE ([1]; any grade, N = 66, value is N): 23 N (%); Coronary sclerosis, treatment-related AE ([1]; any grade, N = 66, value is N): 1 N (%); Decreased neutrophil count, treatment-related AE ([1]; any grade, N = 66, value is N): 3 N (%); Fatigue, treatment-related AE ([1]; any grade, N = 66, value is N): 18 N (%); Hypertension, treatment-related AE ([1]; any grade, N = 66, value is N): 3 N (%); Hyperuricemia, treatment-related AE ([1]; any grade, N = 66, value is N): 12 N (%); Hypoalbuminemia, treatment-related AE ([1]; any grade, N = 66, value is N): 10 N (%); Increased CRP, treatment-related AE ([1]; any grade, N = 66, value is N): 11 N (%); Increased WBC count, treatment-related AE ([1]; any grade, N = 66, value is N): 27 N (%); Increased alanine aminotransferase, treatment-related AE ([1]; any grade, N = 66, value is N): 20 N (%); Increased aspartate aminotransferase, treatment-related AE ([1]; any grade, N = 66, value is N): 23 N (%); Increased creatinine, treatment-related AE ([1]; any grade, N = 66, value is N): 9 N (%); Increased neutrophil count, treatment-related AE ([1]; any grade, N = 66, value is N): 22 N (%); Increased platelet count, treatment-related AE ([1]; any grade, N = 66, value is N): 7 N (%); Intestinal obstruction, treatment-related AE ([1]; any grade, N = 66, value is N): 2 N (%); Leukemoid reaction, treatment-related AE ([1]; any grade, N = 66, value is N): 1 N (%); Melanocytic nevi, treatment-related AE ([1]; any grade, N = 66, value is N): 15 N (%); Abdominal pain, treatment-emergent AE ([1]; any grade): 15 N (%) and 15 (22.7) N (%); Anemia, treatment-emergent AE ([1]; any grade): 31 N (%) and 31 (47.0) N (%); Constipation, treatment-emergent AE ([1]; any grade): 27 N (%) and 27 (40.9) N (%); Fatigue, treatment-emergent AE ([1]; any grade): 20 (30.3) N (%); Hyperuricemia, treatment-emergent AE ([1]; any grade): 31 (47.0) N (%); Increased alanine aminotransferase, treatment-emergent AE ([1]; any grade): 25 N (%) and 25 (37.9) N (%); Increased aspartate aminotransferase, treatment-emergent AE ([1]; any grade): 31 N (%) and 31 (47.0) N (%); Increased leukocyte count, treatment-emergent AE ([1]; any grade): 32 N (%) and 32 (48.5) N (%); Increased neutrophil count, treatment-emergent AE ([1]; any grade): 25 N (%) and 25 (37.9) N (%); Pyrexia, treatment-emergent AE ([1]; any grade): 28 N (%) and 28 (42.4) N (%); Abdominal pain, treatment-related AE ([1]; grades 3-5, N = 66, value is N): 1 N (%); Anemia, treatment-related AE ([1]; grades 3-5, N = 66, value is N): 1 N (%); Constipation, treatment-related AE ([1]; grades 3-5, N = 66, value is N): 0 N (%); Coronary sclerosis, treatment-related AE ([1]; grades 3-5, N = 66, value is N): 1 N (%); Decreased neutrophil count, treatment-related AE ([1]; grades 3-5, N = 66, value is N): 2 N (%); Fatigue, treatment-related AE ([1]; grades 3-5, N = 66, value is N): 1 N (%); Hypertension, treatment-related AE ([1]; grades 3-5, N = 66, value is N): 1 N (%); Hyperuricemia, treatment-related AE ([1]; grades 3-5, N = 66, value is N): 0 N (%); Hypoalbuminemia, treatment-related AE ([1]; grades 3-5, N = 66, value is N): 0 N (%); Increased CRP, treatment-related AE ([1]; grades 3-5, N = 66, value is N): 0 N (%); Increased WBC count, treatment-related AE ([1]; grades 3-5, N = 66, value is N): 0 N (%); Increased alanine aminotransferase, treatment-related AE ([1]; grades 3-5, N = 66, value is N): 1 N (%); Increased aspartate aminotransferase, treatment-related AE ([1]; grades 3-5, N = 66, value is N): 1 N (%); Increased creatinine, treatment-related AE ([1]; grades 3-5, N = 66, value is N): 0 N (%); Increased neutrophil count, treatment-related AE ([1]; grades 3-5, N = 66, value is N): 0 N (%); Increased platelet count, treatment-related AE ([1]; grades 3-5, N = 66, value is N): 0 N (%); Intestinal obstruction, treatment-related AE ([1]; grades 3-5, N = 66, value is N): 1 N (%); Leukemoid reaction, treatment-related AE ([1]; grades 3-5, N = 66, value is N): 1 N (%); Melanocytic nevi, treatment-related AE ([1]; grades 3-5, N = 66, value is N): 0 N (%); Abdominal pain, treatment-emergent AE ([1]; grades 3-5): 1 (1.5) N (%); Anemia, treatment-emergent AE ([1]; grades 3-5): 4 (6.1) N (%); Constipation, treatment-emergent AE ([1]; grades 3-5): 0 N (%); Fatigue, treatment-emergent AE ([1]; grades 3-5): 1 (1.5) N (%); Hyperuricemia, treatment-emergent AE ([1]; grades 3-5): 1 (1.5) N (%); Increased alanine aminotransferase, treatment-emergent AE ([1]; grades 3-5): 2 (3.0) N (%); Increased aspartate aminotransferase, treatment-emergent AE ([1]; grades 3-5): 2 (3.0) N (%); Increased leukocyte count, treatment-emergent AE ([1]; grades 3-5): 0 N (%); Increased neutrophil count, treatment-emergent AE ([1]; grades 3-5): 0 N (%); Pyrexia, treatment-emergent AE ([1]; grades 3-5): 0 N (%); patients who required treatment interruption ([1]; of 66 patients): 31.8%; RP2D ([1]; on alternate days (QOD)): 40 mg; tolerability ([1]; patients in the phase 1 trial): well tolerated; Anemia, serious treatment-emergent AE [1, 3]: 2 (3.0) N (%); Intestinal obstruction, serious treatment-emergent AE [1, 3]: 5 (7.6) N (%); inhibition of clone formation, OS-RC-2 versus 785-O [2]: more significantly inhibited
